Assay results: US10828372B2, “Compositions and methods for the inhibition of fibrosis” (WISCONSIN ALUMNI RESEARCH FOUNDATION, priority 2017, dated 2020)
Where no end group is shown, it is not given here.

What was measured:
[1] = system: EDA-containing fibronectin; test: Endogenous (cellular) fibronectin assembly assay, human proximal tubular epithelial cells (HK-2); type: cell-based; settings: doses up to 500 nM; for IC50: endogenous EDA+-fibronectin, human proximal tubular epithelial cells, read-out: IC50 of fibronectin assembly inhibition
Description: Endogenous (cellular) fibronectin assembly assay: This immunochemical assay measures the ECM incorporation of EDA-containing fibronectin synthesized by human fibroblasts and human proximal tubular epithelial cells. Human proximal epithelial cells, HK-2 cells, were obtained from ATCC (CRL-2190). The EDA+ fibronectin is a splice variant synthesized and secreted by a variety of cells mostly during embryonic development and during wound healing, ECM remodeling, or fibrotic conditions in the adult. Fibroblasts (AH1F) were cultured in DMEM (Gibco) containing 10% fetal calf serum, and human proximal tubular epithelial cells (HK-2) were cultured in keratinocyte serum free medium (KSFM, containing pituitary extract and rEGF, Invitrogen/Thermo Fisher). Both media also contained 2.5 mM glutamine, 100 IU/ml penicillin, and 100 μg/ml streptomycin. Confluent cells were trypsinized and resuspended in DMEM containing 2% FCS in DMEM for AH1F cells or KSFM for HK-2 cells, at densities that allow delivery of 60,000 AH1F or 20,000 HK-2 cells in 90 μl per well in black-walled, flat transparent bottom 96-well plates. Cells were incubated for 2 h at 37° C. with 5% CO2 and checked microscopically for spreading and confluence. Peptides were then added in 10 μl volumes at 10-fold the desired final concentration. Cell monolayers in microplates were incubated overnight in a humidified 37° C., 5% CO2 chamber. After approximately 22 h, 10 μl of AlamarBlue® was added to the cell monolayers and incubated at 37° C. for 2 h to assess cell viability. Fluorescence of AlamarBlue® was read at 555 nm excitation and 585 nm emission. Microplates were washed twice with HBSS containing Ca^2+, Mg^2+ and 50 μl/well of 4% paraformaldehyde (PFA) in PBS was then added for 10 min at room temperature. […] Similar to the measurement of exogenous A488-FN fluorescence, A488-EDA fluorescence was read using microplate reader equipped with bottom-readout capabilities at 485 nm excitation and 525 nm emission. Fluorescence of wells to which A488-IgG was added, i.e., background green fluorescence from non-specific IgG binding and from the cell monolayer was subtracted from fluorescence values of wells incubated with A488-EDA. Data is presented for fibronectin fibrillogenesis or cell viability as percent of fluorescence values (AlexaFluor® 488 fluorescence or AlamarBlue®, respectively) for wells with no peptides.
To determine whether PEG-FUD retained its ability to inhibit fibronectin fibrillogenesis, PEG-FUD and FUD were compared in cell-based fibronectin matrix assembly assays. The ability of PEG-FUD to inhibit the incorporation of exogenous fibronectin derived from plasma and also of fibronectin endogenously produced by the cultured cells was measured, since fibrosis is likely to contain fibronectin from both sources. […]

human plasma FN = test: Isothermal Titration calorimetry (ITC) of peptide binding to fibronectin; settings: pH 7.4 PBS, 25° C., triplicate
Description: Isothermal Titration calorimetry (ITC): ITC experiments were performed using a VP-ITC microcalorimeter (MicroCal, LLC) with a cell volume of 2.2 mL. In a typical experiment, the cell was filled with 1.4 mL of 2 μM human plasma FN and the syringe was filled with 1 mL of 28 μM FUD or PEG-FUD peptides. The temperature was set to 25° C. The titration experiment was performed in 39 injections (1×1, 4×4, and 34×8 μL) delivered in 120 sec intervals. Prior to injection, both FN and the peptides were dialyzed in separate dialysis bags overnight into the same PBS buffer (pH 7.4) solution. Routine analysis involved discarding of the first data point and subtraction of peptide into PBS buffer control run. Data were fit using one set of sites model Lavenberg-Marquardt nonlinear regression in Origin 7.0.
The binding of 10 kDa, 20 kDa, and 40 kDa PEG-FUD to FN was studied using Isothermal Titration calorimetry (ITC). This technique was used to determine the thermodynamic parameters as well as the binding constant (Kd) of the interaction. The peptide was injected into a human plasma FN solution in PBS at pH 7.4 and 25° C. in triplicate runs. […] A Kd of 6 (±3) nM was detected for FUD:FN. […] Similar entropy change of −65 (±3) cal/mol, −74 (±7) cal/mol, −66 (±7) cal/mol, and −73 (±2) and enthalpy change of −31 (±1) kcal/mol, −34 (±2) kcal/mol, −30 (±1) kcal/mol, and −32.5 (±0.5) kcal/mol were detected for the interaction of FUD and 10 kDa, 20 kDa, and 40 kDa PEG-FUD with FN, respectively. […] This observation is contrary to the expectation of PEG attachment diminishing a drug's affinity for its binding partner and presents an unexpected but desired feature of the PEG-FUD peptide.

UUO kidneys = test: Unilateral Ureteral Obstruction (UUO) model of kidney fibrosis; type: in vivo, mouse; settings: compared to saline-treated UUOs

Chain of EDA-containing fibronectin (P02751 32-608 limits assumed): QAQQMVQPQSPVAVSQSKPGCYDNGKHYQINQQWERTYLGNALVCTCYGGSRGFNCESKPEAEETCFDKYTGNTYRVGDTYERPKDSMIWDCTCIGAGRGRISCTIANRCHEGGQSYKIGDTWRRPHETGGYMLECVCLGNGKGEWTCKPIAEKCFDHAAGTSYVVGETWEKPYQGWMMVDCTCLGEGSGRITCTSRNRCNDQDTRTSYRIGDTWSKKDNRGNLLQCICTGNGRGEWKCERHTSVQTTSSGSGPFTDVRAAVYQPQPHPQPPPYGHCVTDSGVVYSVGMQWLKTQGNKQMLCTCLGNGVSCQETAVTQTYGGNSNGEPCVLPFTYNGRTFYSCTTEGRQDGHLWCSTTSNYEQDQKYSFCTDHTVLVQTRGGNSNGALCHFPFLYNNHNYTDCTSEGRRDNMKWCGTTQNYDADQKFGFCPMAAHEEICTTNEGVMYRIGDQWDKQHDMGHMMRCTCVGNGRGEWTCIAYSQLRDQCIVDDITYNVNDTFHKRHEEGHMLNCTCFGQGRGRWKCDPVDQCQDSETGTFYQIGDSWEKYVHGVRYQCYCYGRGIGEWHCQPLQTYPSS
Chain of human plasma FN (P02751 32-608 limits assumed): as above

Substance | inhibition of fibronectin assembly by proximal tubular epithelial cells [1] [%] | IC50 [1] [nM] | Kd (human plasma FN) [nM] | decrease of fibronectin in ECM fractions (immunoblot, normalized to H3) (UUO kidneys)
FUD: 49 amino acid FUD peptide, SEQ ID NO: 1, recombinantly expressed, His-tag removed; inhibitor of fibronectin fibrillogenesis (KDQSPLAGESGETEYITEVYGNQQNPVDIDKKLPNETGFSGNMVETEDT; human) [reference compound] | 50 | ~30 | 6 | approximately 60%
PEG-FUD: PEGylated FUD prepared as in Example 1, PEG size not stated; approximately 27 kDa by mass spectrometry, likely the 20 kDa conjugate (KDQSPLAGESGETEYITEVYGNQQNPVDIDKKLPNETGFSGNMVETEDT; not fully specified (N-terminus); also: PEG size not given here) | 50 | ~30 | ~10 | approximately 80%
